According to patent US8841339B2, “Synergistic antifouling compositions comprising 4-bromo-2-(4-chlorophenyl)-5-(trifluoromethyl)-1H-pyrrole-3-carbonitrile” (Janssen Pharmaceutica N.V., priority 2001, dated 2014):
Marks after values point to notes of the source that are not given here.

Test system: Stichococcus bacillaris (CCAP 379/1A)
Experiment: Poison plate assay in 96 multi-well plates, algae growth
Assay type: cell-based
Details: single active ingredient, incubation time 18 days
Protocol: (§1) Activity against algae growth was determined with the poison plate assay. A calculated amount of a stock solution (containing either 4-bromo-2-(4-chlorophenyl)-5-(trifluoromethyl)-1H-pyrrole-3-carbonitrile, bethoxazin, DCOIT, dichlofluanide, or tolylfluanide in DMSO) was pipetted into multiwell plates in order to reach a final test concentration ranging from 0.05 to 100 ppm and mixed with a warm culture medium. The medium was inoculated with 300 μl of an algal suspension. The multi-well plates were kept at 21° C., a relative humidity of 65% and light-dark cycle of 16 hours a day (1000 Lux photoperiod).
(§2) The lowest concentration of each test compound or mixture of test compounds sufficient to inhibit visible growth was taken as the minimum inhibitory concentration (MIC). The MIC were taken as end points of activity. End points for the combinations of component (I) with one of the components (II) were then compared with the end points for the pure active test compound when employed individually.
(§3) Synergism between component (I) and one of the components (II) was determined by a commonly used and accepted method described by Kull F. C. et al. in Applied Microbiology, 9, 538-541 (1961) using the Synergy Index, which is calculated as follows for two compounds A and B:
(§4) [formula] wherein: • QA is the concentration of compound A in ppm, acting alone, which produced an end point (e.g. MIC), • Qa is the concentration of compound A in ppm, in the mixture, which produced an end point (e.g. MIC), • QB is the concentration of compound B in ppm, acting alone, which produced an end point (e.g. MIC), • Qb is the concentration of compound B in ppm, in the mixture, which produced an end point (e.g. MIC).
(§5) When the Synergy Index is greater than 1.0, antagonism is indicated. When the SI is equal to 1.0, additivity is indicated.

With `N#Cc1c(-c2ccc(Cl)cc2)[nH]c(C(F)(F)F)c1Br` [component (I), 4-bromo-2-(4-chlorophenyl)-5-(trifluoromethyl)-1H-pyrrole-3-carbonitrile] the “MIC-values (minimum inhibitory concentration)” value was > 100* ppm.

Point of comparison: `CCCCCCCCn1sc(Cl)c(Cl)c1=O` [component (II-d), 4,5-dichloro-2-(n-octyl)-3(2H)-isothiazolone], “MIC-values (minimum inhibitory concentration)” value 1.6 ppm. Against it:
- [O-][S+]1CCON=C1c1cc2ccccc2s1 (stereo not shown) [component (II-a), 3-(benzo[b]thien-2-yl)-5,6-dihydro-1,4,2-oxathiazine 4-oxide] — higher, 6.2 ppm
- Cc1ccc(N(SC(F)(Cl)Cl)S(=O)(=O)N(C)C)cc1 [component (II-b), 1,1-dichloro-N-[(dimethylamino)sulfonyl]-1-fluoro-N-(4-methylphenyl)-methanesulfenamide] — higher, 12.5 ppm
- CN(C)S(=O)(=O)N(SC(F)(Cl)Cl)c1ccccc1 [component (II-c), 1,1-dichloro-N-[(dimethylamino)sulfonyl]-1-fluoro-N-phenyl-methanesulfenamide] — higher, 25 ppm

Test system: Chlorella vulgaris (CCAP 211/12)
Experiment: as above
Assay type: cell-based
Details: single active ingredient, incubation time 18 days
Protocol: as §1, §2, §3, §4, §5

For `N#Cc1c(-c2ccc(Cl)cc2)[nH]c(C(F)(F)F)c1Br` [component (I), 4-bromo-2-(4-chlorophenyl)-5-(trifluoromethyl)-1H-pyrrole-3-carbonitrile], the “MIC-values (minimum inhibitory concentration)” value was > 100* ppm.

Point of comparison: `Cc1ccc(N(SC(F)(Cl)Cl)S(=O)(=O)N(C)C)cc1` [component (II-b), 1,1-dichloro-N-[(dimethylamino)sulfonyl]-1-fluoro-N-(4-methylphenyl)-methanesulfenamide], “MIC-values (minimum inhibitory concentration)” value 25 ppm. Against it:
- [O-][S+]1CCON=C1c1cc2ccccc2s1 (stereo not shown) [component (II-a), 3-(benzo[b]thien-2-yl)-5,6-dihydro-1,4,2-oxathiazine 4-oxide] — lower, 1.6 ppm
- CN(C)S(=O)(=O)N(SC(F)(Cl)Cl)c1ccccc1 [component (II-c), 1,1-dichloro-N-[(dimethylamino)sulfonyl]-1-fluoro-N-phenyl-methanesulfenamide] — the same, 25 ppm
- CCCCCCCCn1sc(Cl)c(Cl)c1=O [component (II-d), 4,5-dichloro-2-(n-octyl)-3(2H)-isothiazolone] — lower, 1.6 ppm
